In the supplement of paper PMC10307832 one finds relative viability data, which are given here for four molecules.

Holding throughout (experiment): relative viability (nuclei count vs DMSO), 5 days (fraction); higher = more cells survive
The test system of one assay is LK-2. In a few lines:
(§1)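 Cells from lung cancer lines were seeded into 1536-well plates and, one day later, dosed by pin tool. Treatments were either a single drug or a fixed dose of an anchor drug with five library-drug doses (not always all listed) in √10 steps. After 5 days, nuclei were stained in a one-step fixation (final 0.05% Triton X-100, 1% formaldehyde, 1 ug/ml Hoechst) and counted on 4× images, and relative viability is the treated-to-vehicle nuclei ratio, as the median of duplicate plates.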

In a further assay the test system is NCI-H1648. In a few lines: as §1
In the next assay the test system is CAL-12T. In a few lines: as §1
The subject of another assay is NCI-H1650. In a few lines:
as §1

The test system of the next assay is NCI-H522. In a few lines:
as §1

The next assay concerns NCI-H1703. In a few lines: as §1

The structures appear in SMILES notation.

For the molecule `CC1(C)CCC(c2ccc(Cl)cc2)=C(CN2CCN(c3ccc(C(=O)NS(=O)(=O)c4ccc(N[C@H](CCN5CCOCC5)CSc5ccccc5)c(S(=O)(=O)C(F)(F)F)c4)cc3)CC2)C1` [Navitoclax] + CC(=O)Nc1cccc(-n2c(=O)n(C3CC3)c(=O)c3c(Nc4ccc(I)cc4F)n(C)c(=O)c(C)c32)c1 [Trametinib] (partner 0.02 µM), the relative viability in the assay with LK-2 (first compound 0.005 µM) turned out to be 0.76; with LK-2 (first compound 0.01581 µM), 0.868; with LK-2 (first compound 0.05 µM), 0.922; with LK-2 (first compound 0.1581 µM), 0.807; in the assay with LK-2 (first compound 0.5 µM) it was 0.695; in the assay on NCI-H1648 (first compound 0.005 µM), 0.541. Besides, the relative viability with NCI-H1648 (first compound 0.01581 µM) stood at 0.427; with NCI-H1648 (first compound 0.1581 µM), 0.453; in the assay with NCI-H1648 (first compound 0.5 µM), 0.402; with CAL-12T (first compound 0.005 µM), 0.348; with CAL-12T (first compound 0.01581 µM), 0.373; with CAL-12T (first compound 0.05 µM), 0.351. For the same molecule, the relative viability with CAL-12T (first compound 0.1581 µM) was 0.331; with CAL-12T (first compound 0.5 µM) it was 0.311; in the assay with NCI-H1650 (first compound 0.005 µM) it was 0.646; in the assay on NCI-H1650 (first compound 0.01581 µM) it was 0.723; in the assay with NCI-H1650 (first compound 0.05 µM), 0.489; with NCI-H1650 (first compound 0.1581 µM), 0.439. Moreover, the relative viability in the assay with NCI-H1650 (first compound 0.5 µM) came to 0.45; with NCI-H522 (first compound 0.005 µM), 0.753; in the assay with NCI-H522 (first compound 0.01581 µM) it was 0.782; in the assay on NCI-H522 (first compound 0.05 µM), 0.778; in the assay with NCI-H522 (first compound 0.1581 µM) it was 0.627; with NCI-H522 (first compound 0.5 µM) it was 0.725.

As for `CC1(C)CCC(c2ccc(Cl)cc2)=C(CN2CCN(c3ccc(C(=O)NS(=O)(=O)c4ccc(N[C@H](CCN5CCOCC5)CSc5ccccc5)c(S(=O)(=O)C(F)(F)F)c4)cc3)CC2)C1` [Navitoclax] + Nc1nc2[nH]cc(CCc3ccc(C(=O)N[C@@H](CCC(=O)O)C(=O)O)cc3)c2c(=O)[nH]1 [Pemetrexed] (partner 0.2 µM), the relative viability in the assay on LK-2 (first compound 0.005 µM) was 0.35; with LK-2 (first compound 0.01581 µM) it was 0.244; in the assay on LK-2 (first compound 0.05 µM), 0.281; in the assay on LK-2 (first compound 0.1581 µM), 0.332; in the assay on LK-2 (first compound 0.5 µM), 0.316; with NCI-H1648 (first compound 0.005 µM), 0.868. The relative viability with NCI-H1648 (first compound 0.01581 µM) came out at 0.747; in the assay with NCI-H1648 (first compound 0.1581 µM) it was 0.563; in the assay with NCI-H1648 (first compound 0.5 µM), 0.833; in the assay with CAL-12T (first compound 0.005 µM), 1.23; in the assay on CAL-12T (first compound 0.01581 µM), 1.34; in the assay with CAL-12T (first compound 0.05 µM) it was 1.23. For the same molecule, the relative viability in the assay with CAL-12T (first compound 0.1581 µM) was found to be 1.23; in the assay on CAL-12T (first compound 0.5 µM), 1.25; with NCI-H1650 (first compound 0.005 µM), 0.365; in the assay with NCI-H1650 (first compound 0.01581 µM), 0.412; in the assay with NCI-H1650 (first compound 0.05 µM), 0.298; in the assay on NCI-H1650 (first compound 0.1581 µM), 0.347. The relative viability amounted to 0.334 with NCI-H1650 (first compound 0.5 µM); 1.07 with NCI-H522 (first compound 0.005 µM); 1.28 in the assay on NCI-H522 (first compound 0.01581 µM); 0.885 in the assay on NCI-H522 (first compound 0.05 µM); 1.11 in the assay on NCI-H522 (first compound 0.1581 µM); 1.13 with NCI-H522 (first compound 0.5 µM).

On to `O=C(O)c1ccc(-c2c[nH]c3ncc(-c4ccccc4)cc23)cc1C1CCCC1` + CC(=O)Nc1cccc(-n2c(=O)n(C3CC3)c(=O)c3c(Nc4ccc(I)cc4F)n(C)c(=O)c(C)c32)c1 [Trametinib] (partner 0.02 µM), for which the relative viability with LK-2 (first compound 0.04 µM) came out at 0.73; in the assay on LK-2 (first compound 0.1265 µM) it was 0.816; in the assay on LK-2 (first compound 0.4 µM), 0.599; in the assay on LK-2 (first compound 1.265 µM), 0.781; with NCI-H1648 (first compound 0.04 µM) it was 0.589; in the assay with NCI-H1648 (first compound 0.1265 µM), 0.448. The relative viability in the assay on NCI-H1648 (first compound 0.4 µM) came out at 0.494; in the assay with CAL-12T (first compound 0.04 µM), 0.327; with CAL-12T (first compound 0.1265 µM), 0.372; in the assay with CAL-12T (first compound 0.4 µM) it was 0.369; with CAL-12T (first compound 1.265 µM), 0.333; in the assay on NCI-H1650 (first compound 0.04 µM), 0.54. For the same molecule, the relative viability stood at 0.684 in the assay on NCI-H1650 (first compound 0.1265 µM); 0.758 in the assay with NCI-H1650 (first compound 0.4 µM); 0.49 in the assay with NCI-H1650 (first compound 1.265 µM); 0.696 in the assay on NCI-H522 (first compound 0.04 µM); 0.761 in the assay on NCI-H522 (first compound 0.1265 µM); 0.763 in the assay on NCI-H522 (first compound 0.4 µM). This molecule registered a relative viability with NCI-H522 (first compound 1.265 µM) of 0.768.

Consider `CC1(C)CCC(c2ccc(Cl)cc2)=C(CN2CCN(c3ccc(C(=O)NS(=O)(=O)c4ccc(N[C@H](CCN5CCOCC5)CSc5ccccc5)c(S(=O)(=O)C(F)(F)F)c4)cc3)CC2)C1` [Navitoclax] + NC(=O)Nc1cc(-c2cccc(F)c2)sc1C(=O)N[C@H]1CCCNC1 [AZD7762] (partner 0.2 µM), for which the relative viability was 0.128 in the assay on NCI-H1703 (first compound 0.005 µM); 0.161 with NCI-H1703 (first compound 0.01581 µM); 0.149 with NCI-H1703 (first compound 0.05 µM); 0.122 in the assay on NCI-H1703 (first compound 0.5 µM); 0.593 in the assay on LK-2 (first compound 0.005 µM); 0.567 in the assay on LK-2 (first compound 0.01581 µM). Also, the relative viability was found to be 0.295 in the assay on LK-2 (first compound 0.05 µM); 0.358 in the assay with LK-2 (first compound 0.1581 µM); 0.351 in the assay with LK-2 (first compound 0.5 µM); 0.799 in the assay on NCI-H1648 (first compound 0.005 µM); 0.669 with NCI-H1648 (first compound 0.01581 µM); 0.667 in the assay with NCI-H1648 (first compound 0.1581 µM). Moreover, the relative viability in the assay with NCI-H1648 (first compound 0.5 µM) turned out to be 0.604; in the assay with CAL-12T (first compound 0.005 µM), 0.626; with CAL-12T (first compound 0.01581 µM), 0.593; with CAL-12T (first compound 0.05 µM) it was 0.627; with CAL-12T (first compound 0.1581 µM), 0.619; in the assay on CAL-12T (first compound 0.5 µM), 0.541. Besides, the relative viability was determined as 0.748 in the assay with NCI-H522 (first compound 0.005 µM); 0.987 with NCI-H522 (first compound 0.01581 µM); 1.12 in the assay on NCI-H522 (first compound 0.05 µM); 0.832 with NCI-H522 (first compound 0.1581 µM); 0.9 in the assay with NCI-H522 (first compound 0.5 µM).
